Here are results for ten molecules from US20200079814A1, “Nucleotides comprising an N-[(S)-1-cyclobutoxycarbonyl]phosphoramidate moiety and analogs and application thereof” (priority 2017, published 2020).

Data set [1] deals with HIV strain NL4.3 carrying the GFP-reporter (NL4.3-GFP). The experiment in a line: microbe, parasite or virus in culture. The conditions noted are these: for EC50: Human immunodeficiency virus 1, SUP-T1, 45 h; for SI = CC50/EC50: SupT1 cells. The data set is classed as cell-based. Here is the method: (§1) The antiviral activity of tested compounds was evaluated on the T-lymphocytes line, SupT1. The cells were infected with the HIV strain NL4.3 carrying a gene encoding the green fluorescent protein (NL4.3-GFP). A virus preparation was obtained by means of transfection of the 293T cells of […] DNA. After 48 hours of transfection, the medication was frozen and stored until being used. To increase the efficiency of infection, the suspension of SupT1 cells was sedimented from the infection mixture by centrifugation. Tested compounds were added to the cells immediately before adding the virus. After 2 hours of incubation, the infection mixture was replaced by a fresh culture medium with tested compounds. The efficiency of infection was evaluated after 45 hours by computing the percentage of fluorescence-bright cells against uninfected cell cultures. Concurrently, the cytotoxicity of tested compounds was evaluated in the same, but uninfected, cell line SupT1 using the XTT reagent. To determine antiviral activity and cytotoxicity, serial tenfold dilutions of the preparations were used (starting with 10 j-M for antiviral activity and from 100 μM for cytotoxicity). DMSO (0.1%) was used for negative control. The values of EC50, CC50 and SI (selectivity index) were found. The quality of tests was evaluated based on the following controls: signal to background ratio, integrase inhibitor raltegravir (1 μM), and reproducibility of test results. Emetine (0.03, 0.09, and 0.2 μM) was used as the reference for cytotoxicity evaluation.

The nature of data set [2]: Cytotoxicity in uninfected SupT1 cells (XTT reagent). The data set is classed as cell-based. The conditions noted are these: human, uninfected SupT1 cells (T-lymphocyte line). Here is the method: as §1
A general note: Tetrazolium dyes change colour on reduction, which living cells bring about.

In a further data set the test system is HCV. The note with it: literature; cited from earlier work.
The conditions of data set [3]: from M. J. Sofia et al. J. Med. Chem. 2010; cited from earlier work.
For data set [4] the following is noted: from M. J. Sofia et al. J. Med. Chem. 2010; cited from earlier work. The source holds these as a separate data set.
Data set [5] has as its system HCV replicon, genotype 1b (gT1b HCV NS5B). The conditions noted are these: cited from earlier work; for EC50: from hcvdruginfo.ca.
The conditions of data set [6]: from M. J. Sofia et al. J. Med. Chem. 2010; cited from earlier work. The source holds these as a separate data set.
For data set [7] the following is noted: from M. J. Sofia et al. J. Med. Chem. 2010; cited from earlier work. This is another data set of the same source.
In the next data set the test system is SupT1 cells. As to the kind of experiment: Cytotoxicity in uninfected SupT1 cells (XTT reagent). It counts as cell-based. As for the experimental part:
as §1

The conditions of data set [8]: pooled human blood plasma, 1 μM, 37° C. Here is the method: (§2) Initial compositions comprising the prodrug of formula 1B.7 (the tested compounds) were prepared with a concentration of 10 mM in DMSO. From said compositions, 100-fold working solutions were prepared with a concentration of 100 μM in a mixture of acetonitrile:water with a volumetric ratio of 1:1.
(§3) The samples were then centrifuged, and the supernatant (150 μl) was sampled for analysis […]. The incubation was performed in two replicates, with each sample measured twice.
(§4) Samples were analyzed using an HPLC-MS/MS technique developed for each tested prodrug, wherein the chromatographic system 1290 Infinity II (Agilent Technologies) was combined with the tandem mass spectrometer QTRAP5500 (AB Sciex). […] Scanning in a total ion current mode (MS1) allowed us to identify a molecular ion for each compound, and basic product ions were recorded in MS2 mode. […] In quantitative chromatogram processing, the most intensive MRM transition was used for the analyte and the internal standard. […]
(§5) Half-life (T1/2) was found from the kinetics of tested prodrug elimination in an antiviral composition during incubation in a biological matrix. […] From linear dependence of log normalized areas of chromatographic peaks on time, the constant of elimination rate was calculated (k is linear section slope).

Data set [9] in a line: Stability in human liver S9 fraction. As for the experimental part: as §2, §3, §4, §5
A short description of the next data set: physchem. The conditions noted are these: for half-life at 1 μM: simulated gi fluid. As for the experimental part:
as §2
b) Stability in Artificial Gastric and Intestinal Juices.
The tested composition comprising the prodrug of formula 1B.7 in a final concentration of 1 μM was incubated in artificial gastric juice (0.2% NaCl in 0.7% v/v HCl) and artificial intestinal juice (0.05M KH2PO4, pH 6.75). The incubation was performed in a Vortemp56 shaking incubator at 37° C. with stirring at a rate of 300 rev/min. […] The samples were then centrifuged, and the supernatant (150 μl) was sampled for analysis […]. The incubation was performed in two replicates, with each sample measured twice.
Samples were analyzed using an HPLC-MS/MS technique developed for each tested prodrug, wherein the chromatographic system 1290 Infinity II (Agilent Technologies) was combined with the tandem mass spectrometer QTRAP5500 (AB Sciex). When developing conditions for mass-spectrometric detection, the solutions of tested compounds in a mixture of acetonitrile-water 1:1 with a concentration of 100 ng/ml were injected directly into the mass spectrometer using a syringe pump with electrospray ionization in a positive ion mode. Scanning in a total ion current mode (MS1) allowed us to identify a molecular ion for each compound, and basic product ions were recorded in MS2 mode. Then, to attain maximum sensitivity, the MS/MS technique was optimized in MRM mode. In quantitative chromatogram processing, the most intensive MRM transition was used for the analyte and the internal standard. Separation was carried out by means of linear gradient elution chromatography on a YMC Triart C18 column (50×2 mm, 1.9 μm) in a mobile phase consisting of 0.1% formic acid in water and 0.1% formic acid in acetonitrile. Tolbutamide (Fluka) was used as the internal standard.
Half-life (T1/2) was found from the kinetics of tested prodrug elimination in an antiviral composition during incubation in a biological matrix. The computations were based on the values of chromatographic peak areas for compounds in test samples normalized to the internal standard signal. From linear dependence of log normalized areas of chromatographic peaks on time, the constant of elimination rate was calculated (k is linear section slope).

For data set [10], the system named is HCV replicon, genotype 1b (gT1b HCV NS5B). As to the kind of experiment: Anti-HCV activity in Huh7 cells stably transfected with an HCV replicon. It counts as cell-based. Here is the method: The antiviral activity of tested compositions comprising prodrugs was evaluated using an Huh7 human hepatocellular carcinoma cell line stably transfected with an HCV replicon. A cell suspension in a complete culture medium (DMEM 1X, Cellgro; cat. #10-013-CV) was transferred into 96-well plates (50 μl per well) with a final density of 7500 cells per well. The serial dilutions of tested prodrugs were prepared from a fresh 200-fold generic solution in DMSO with 11 concentration points dilution for each step, starting from 20 nM in a complete medium and were used as 2-fold solutions in two replicates. Minimum 4 hours after planting the cells, 50 μl of serial prodrug dilutions was added to each well. […] The plate with cells was incubated for 3 days at 37° C. under humidified 5% CO2. Upon completion of incubation, the medium was removed by turning the plate over and shaking it carefully. The cells were fixed for one minute with 100 μl of a 1:1 acetone:methanol solution, washed 3 times with a phosphate buffer (PBS), and blocked for 1 h at room temperature using a 10% fetal bovine serum (FBS) in PBS (150 μl/well). […] The reaction was stopped by 2N H2SO4 (100 μl/well), and OD490 was measured using the multifunctional reader Victor^3 V 1420 (Perkin Elmer). The values of EC50 for tested prodrugs were measured from an activity curve plotted using the GraphPad Prizm software.
A general note: In antiviral work, replicon cells carry a viral genome segment that copies itself.

For data set [11], the system named is Huh7 human hepatocellular carcinoma cell line. The note with it: from M. J. Sofia et al. J. Med. Chem. 2010; cited from earlier work.
Setting [12] is: gT1b, from M. J. Sofia et al. J. Med. Chem. 2010.

Several values for one entry are separate records, joined by “and”; a condition that tells them apart may be missing. Equal entries are not always repeated. Where two headings read alike, the source gives them in different places. Marks after values point to notes of the source that are not given here.

As a reminder, the EC50 is the concentration that produces a half-maximal response. As usually defined, the CC50 is the concentration that lowers cell viability or growth by half. A higher CC50 goes with lower toxicity to the cells. `C[C@H](Cn1cnc2c(N)ncnc21)OC[P@@](=O)(N[C@@H](C)C(=O)OC1CCC1)Oc1ccccc1` [Prodrug 1A.1, (S)-cyclobutyl 2-((S)-(((R)-1-(6-amino-9H-purin-9-yl)propan-2-yloxy)methyl) (phenoxy)phosphorylamino)-propanoate]: in data set [1], the EC50 was found to be 0.027 µM and the “SI = CC50/EC50” value is given as >3704. Further, the “selectivity, times higher than TAF” value in [1] (SupT1 HIV test, versus TAF) stood at 1.4 times. For the same molecule, in [2], the CC50 was > 100 µM.
What is called EC90 is the concentration needed for an effect of 90%. On to `COc1nc(N)nc2c1ncn2C1O[C@H](COP(=O)(N[C@@H](C)C(=O)OC(C)C)Oc2ccccc2)[C@@H](O)[C@@]1(C)F` (stereo partly shown) [PSI-353661], for which the EC90 in the data set on HCV was 0.008 µM.
As to `C[C@H](NP(=O)(OC[C@H]1O[C@@H](n2ccc(=O)[nH]c2=O)[C@](C)(F)[C@@H]1O)Oc1ccccc1)C(=O)OC1CCCCC1` (stereo partly drawn) [Prodrug 2.1, cyclohexyl (S)-2-{[(2R,3R,4R,5R)-5-(2,4-dioxo-3,4-dihydro-2H-pyrimidin-1-yl)-4-fluoro-3-hydroxy-4-methyl-tetrahydrofuran-2-ylmethoxy]-phenoxy-phosphorylamino}-propionate], the “T1/2 SIF” value in data set [3] is recorded as >20* h. The “T1/2 SGF” value in [4] was 17* h. Also, the EC90 in data set [5] (setting [12]) is 0.25 µM. Also, the “T1/2 human S9” value in data set [6] is listed as 1.4 h. Further, the T1/2 human plasma in data set [7] was >24* h.
Take `CC(C)OC(=O)[C@H](C)N[P@](=O)(CO[C@H](C)Cn1cnc2c(N)ncnc21)Oc1ccccc1` [TAF, temofovir alafenamide]: in data set [1], a half-maximal effect (EC50) was put at 0.035 µM and the “SI = CC50/EC50” value came to 2857. In addition, in the data set with SupT1 cells, the CC50 is > 100 µM.
As for `CC(C)(CO)C(=O)SCCOP(=O)(NCc1ccccc1)OC[C@H]1OC(n2cnc3c(=O)[nH]c(N)nc32)[C@](C)(O)[C@@H]1O` (stereo partly shown) [IDX-184], the EC50 in the data set with HCV was 0.4 µM.
The half-life is the time in which the quantity being followed falls by half. `C[C@H](N[P@](=O)(OC[C@H]1O[C@@H](n2ccc(=O)[nH]c2=O)[C@](C)(F)[C@@H]1O)Oc1ccccc1)C(=O)OC1CCC1` [Prodrug 1B.7, (S)-cyclobutyl 2-{(S)-[(2R,3R,4R,5R)-5-(3,4-dihydro-2,4-dioxo-2H-pyrimidin-1-yl)-3-hydroxy-4-methyl-4-fluoro-tetrahydrofuran-2-ylmethoxy]-phenoxy-phosphorylamino}-propanoate]: the T1/2 human plasma in data set [8] was >24 h. The “metabolic rate in human S9 fraction, times faster than Sovaldi” value in data set [9] (versus Sovaldi) was found to be 11 times. The “metabolic rate in human S9 fraction, times faster than compound 2.1” value in [9] (versus compound of formula 2.1) came out at 28 times. Besides, the “T1/2 SGF” value in “physchem” (artificial gastric juice, 1 μM, 37° C.) was determined as 12.7 h. Also, in the data set “physchem” (artificial intestinal juice, 1 μM, 37° C.), the “T1/2 SIF” value was >24 h. Moreover, the results for the half-life at 1 μM in the data set “physchem” and in the data set “physchem” (pH 6.75) were 12.7 to 17 h and > 20 h, respectively.
On to `C[C@H](Cn1cnc2c(N)ncnc21)OC[P@](=O)(N[C@@H](C)C(=O)OC1CCC1)Oc1ccccc1` [Prodrug 1A.2, (S)-cyclobutyl 2-((R)-(((R)-1-(6-amino-9H-purin-9-yl)propan-2-yloxy)methyl) (phenoxy)phosphorylamino)-propanoate], for which, in [1], a half-maximal effect (EC50) was put at 0.038 µM and the “SI = CC50/EC50” value is >2632. Moreover, the CC50 in data set [2] is > 100 µM.
Take `COc1nc(N)nc2c1ncn2[C@@H]1O[C@H](COP(=O)(N[C@@H](C)C(=O)OCC(C)(C)C)Oc2cccc3ccccc23)[C@@H](O)[C@@]1(C)O` (stereo partly shown) [INX-08189]: the EC50 in the data set on HCV was 0.01 µM.
In data set [10] (10% FBS), `C[C@H](N[P@](=O)(OC[C@H]1O[C@@H](n2ccc(=O)[nH]c2=O)[C@](C)(F)[C@@H]1O)Oc1ccccc1)C(=O)OC1CC1` [Prodrug 2.2, (S)-cyclopropyl 2-((S)-(((2R,3R,4R,5R)-5-(2,4-dioxo-3,4-dihydropyrimidin-1(2H)-yl)-3-hydroxy-4-methyl-4-fluoro-tetrahydrofuran-2-yl)methoxy)-(phenoxy)-phosphorylamino)-propanoate] showed an EC90 of 0.41 µM. For the same molecule, the EC50 in [10] (Hepatitis C virus, Huh-7, 10% FBS) came out at 0.073 µM.
Regarding `CC(C)OC(=O)[C@H](C)NP(=O)(OC[C@H]1O[C@@H](n2ccc(=O)[nH]c2=O)[C@](C)(F)[C@@H]1O)Oc1ccccc1` (stereo partly drawn) [Sovaldi ®, isopropyl (S)-2-{[(2R,3R,4R,5R)-5-(2,4-dioxo-3,4-dihydro-2H-pyrimidin-1-yl)-4-fluoro-3-hydroxy-4-methyl-tetrahydrofuran-2-ylmethoxy]-phenoxy-phosphorylamino}-propionate], the “T1/2 SIF” value in data set [3] was >24* h. Moreover, in data set [4], the “T1/2 SGF” value is 22.0* h. Further, the CC90 in [11] was > 100 µM. Besides, the EC90 in [5] (setting [12]) was 0.52 µM; in data set [5] (gT1b, from M. J. Sofia et al. J. Med. Chem. 2010, listed as Sovaldi®), 0.59 µM; in data set [5] (genotype 1b (gT1b) HCV), 0.59 µM. Also, the EC50 in data set [5] (gT1b) and in [5] (genotype 1b (gT1b) HCV) was 0.045 to 0.17 µM each time. Moreover, in data set [6], the “T1/2 human S9” value was 0.54 h and 0.57 h. The T1/2 human plasma in data set [7] is reported as >24* h.
